Measurements from patent US20030158403A1, “Nuclease resistant chimeric oligonucleotides” (ISIS Pharmaceuticals, Inc., priority 2001, published 2003).
In the oligonucleotide strings, read from the 5' end, every base follows the letter of its sugar. An asterisk marks phosphorothioate; unmarked linkages are phosphodiester. Other units and linkages are bracketed, terminal groups are in braces. A string of capitals states the bases alone. [L-DNA] = L-2'-deoxythymidine (L-thymidine); d = 2'-deoxy (DNA)

Experiments:
[1] = test system: Target RNA; assay: Tm values of L-thymidine modified oligonucleotides against RNA; format: binding
[2] = In vivo nuclease stability of L/D-oligonucleotide chimera, IV bolus, organs analyzed by CGE; conditions: 24 h after IV bolus, BalbC mouse
Protocol: Here we report the in vivo nuclease stability of L/D-oligonucleotide chimera in mouse. We synthesized the phosphoramidite and CPG derived from L-thymidine, which was synthesized from a novel route [Jung, E. M.; Xu, Y. Tetrahedron Lett. 1997, 24, 4199-4202]. A 20 mer phosphorothioate oligonucleotide ISIS-120745 (antisense to mouse ICAM-1) was capped with L-2′-deoxy thymidine at 3′and 5′-positions. The oligonucleotide was then administered IV bolus into BalbC mouse. After 24 h. mouse was sacrificed and the oligonucleotide was isolated from different organs. Percentage of full-length oligonucleotide present in different organs were analyzed by CGE.

ISIS 8651: TGCATCCCCCAGGCCACCAT (SEQ ID NO: 4), all P = S; unmodified counterpart of 120745 (dT*dG*dC*dA*dT*dC*dC*dC*dC*dC*dA*dG*dG*dC*dC*dA*dC*dC*dA*dT)
Tm, Target RNA [1]: 68.7 °C
degradation in organs [2]: degraded completely

ISIS 5132: 5′ TCCCGCTGTGATGCATT 3′ (SEQ ID NO: 6), all P = S; unmodified counterpart of 121785 (dT*dC*dC*dC*dG*dC*dT*dG*dT*dG*dA*dT*dG*dC*dA*dT*dT)
Tm, Target RNA [1]: 60.6 °C

ISIS 120745: 5′ T*GC ATC CCC CAG GCC ACC AT*3′; T* = L-Thymidine, all P = S; antisense to mouse ICAM-1 (antisense TGCATCCCCCAGGCCACCAT; sugars from the 5' end [L-DNA]1 d18 [L-DNA]1, all phosphorothioate, methylation of C not given here)
Tm, Target RNA [1]: 66.94 °C
ΔTm ([1]; relative to the unmodified parent oligonucleotide): −1.76 °C
intact full-length oligonucleotide isolated from all the major organs [2]: > 90%
